# Test results taken from patent publication US11559525B2, “Therapeutic drug for dyskinesia” (Sumitomo Pharma Co., Ltd., priority 2019, dated 2023).
# Key:
# Format in all cases: in vivo
# [1] = test system: rat Vogel conflict test model; experiment: Rat Vogel conflict test model (anxiolytic action); details: non-clinical models, PD-LID effect in 6-OHDA-lesioned rats
# Procedure: The anxiolytic action was evaluated using a rat Vogel conflict test model, and the effect on PD-LID was evaluated in 6-OHDA-lesioned rats.
# [2] = test system: PD-LID rat model (6-OHDA-lesioned rats); experiment: ON-time prolongation action (ON score, ON time without dyskinesia) in PD-LID rat model; details: oral 100 mg/kg as citrate
# Procedure: To make a PD-LID rat model, a mixture of levodopa methyl ester hydrochloride (6 mg/kg; Sigma-Aldrich) dissolved in saline and benserazide hydrochloride (15 mg/kg; Sigma-Aldrich) (hereinafter, also referred to as “levodopa containing solution”) was intraperitoneally administered once daily to 6-OHDA-lesioned rats. The levodopa containing solution was repeatedly administered for 3 weeks or longer to observe and evaluate the behavior. […] The sum of the scores for Limb AIMs, Axial AIMs, and Orolingual AIMs in 3 hours was used as the total dyskinesia-like symptom (AIMs) score. Individuals with a total AIMs score of less than 10 were excluded from the test as not manifesting a dyskinesia-like symptom. The behavior was observed and evaluated before the drug evaluation date. The rats were assigned to each dosing group by using the 3 hour total dyskinesia-like symptom (AIMs) score, Locomotive behavior score, and rat body weight as indicators, which were used for evaluation of drugs. For an indicator of dyskinesia behavior, the sum of the Limb AIMs, Axial AIMs, and Orolingual AIMs at each evaluation point was used as the AIMs score. For the rotational behavior (ON score), Locomotive behavior at each evaluation point was used as an indicator. The total ON score in 3 hours was used as the total ON score. For ON time without dyskinesia, the period during which the AIMs score is 0 and Locomotive behavior is 1 or greater at each evaluation point was added. Duration of action of levodopa without a dyskinesia symptom (ON time without dyskinesia) refers to the aggregate time with no dyskinesia during the antiparkinsonian action effective time, i.e., “ON-time”, and defined as the time during which the dyskinesia symptom (AIMs) score is 0 and the rotational behavior (Locomotive behavior) score is 1 or greater at each evaluation point after levodopa administration. […] After 5 minutes, a levodopa containing solution was intraperitoneally administered, and the behavior was observed and evaluated. The results in the drawings are indicated in terms of mean value±standard error. The test results were statistically analyzed by comparison with the solvent administration group using the Steel test with the total ON score in 3 hours or ON time without dyskinesia as an indicator. ** indicates p<0.01, meaning that there is a significant difference. For evaluation of a tape agent, the abdominal regions of the rats were shaved prior to the evaluation date. […] After 4 hours from application, a levodopa containing solution was intraperitoneally administered to observe and evaluate the behavior. The results in the drawings are indicated in terms of mean value±standard error. Individuals with 50% or more of the tape agent coming off during the test were excluded from analysis. The test results were statistically analyzed by comparison with the placebo tape administration group using Wilcoxon rank sum test with the total ON score in 3 hours or ON time without dyskinesia as an indicator. * indicates p<0.05 and ** indicates […], meaning that there is a significant difference compared to the solvent oral administration group or the placebo tape administration group.
# [3] = test system: PD-LID rat model (6-OHDA-lesioned rats); experiment: Dyskinesia improving effect upon continuous subcutaneous infusion of tandospirone in PD-LID rat model
# Procedure: The behavior was observed and evaluated before the drug evaluation date. The rats were assigned to each dosing group by using the 3 hour AIMs score, Locomotive behavior score, and rat body weight as indicators, which were used for evaluation of drugs. However, individuals with a total AIMs score of less than 10 were excluded from the test as lacking manifestation of a dyskinesia-like symptom. Individuals with a body weight deviating 10% or more from the mean body weight were also excluded from the test to minimize variation in the dosage for each individual. […] The prepared solution was used after injection into an ALZET® Osmotic Pump MODEL 2ML1 (9.68 μL/hour; DURECT). […] After 4 hours, a levodopa containing solution was administered to observe and evaluate the behavior. […] The results in the drawings are indicated in terms of mean value±standard error. The test results were statistically analyzed by comparison with the solvent administration group by Steel test using the total AIMs score in 3 hours and the total AIMs score in 100 to 180 minutes as parameters. * indicates p<0.05, meaning that there is a significant difference.
# [4] = continuous subcutaneous infusion 1.25 mg/kg/hour
smiles,measurement,setting,value
"O=C1[C@@H]2[C@H]3CC[C@H](C3)[C@@H]2C(=O)N1CCCCN1CCN(c2ncccn2)CC1 [tandospirone, (1R,2S,3R,4S)—N-[4-{4-(pyrimidine-2-yl)piperadine-1-yl}butyl]-2,3-bicyclo[2.2.1]heptanedicarboximide]",anxiolytic action compared with effect on PD-LID,[1],exerted at the same dosage
same,"ON-time without dyskinesia for 180 minutes (Locomotive behavior ≥1, and AIMs score=0)",[2],prolongation of ON time without dyskinesia was observed only at a dose at which there is a risk of side effects
same,dyskinesia-like symptoms (total AIMs score in 180 minutes) vs solvent,[3]; [4],significant improvement
same,total AIMs score in 100 to 180 minutes vs solvent,[3]; [4],significant improvement
same,dyskinesia-like symptoms (total AIMs score in 180 minutes),"[3]; continuous subcutaneous infusion 0.05, 0.25, 1.25 mg/kg/hour, levodopa after 4 hours",dose-dependently improved dyskinesia-like symptoms
same,clear dyskinesia-like symptom (mean AIMs score of 2 or greater) at 120 to 140 minutes after levodopa administration,[3]; continuous subcutaneous infusion 0.05-1.25 mg/kg/hour,not found
same,rebound symptom,"[3]; continuous subcutaneous infusion, any of the dosages",did not lead to a rebound symptom
